# Laboratory results published in article PMC10467108, “Of Seven New K^+ Channel Inhibitor Peptides of Centruroides bonito, α-KTx 2.24 Has a Picomolar Affinity for Kv1.2” (Toxins, 2023).
# Where a SMILES comes first, the peptide text is derived from it. Bridges are numbered along the chain shown (N, C = ends).
# Key:
# Assay type in all cases: cell-based
# hKv1.1 = target: T1, hKv1.1 (Homo sapiens, UniProt Q09470); assay: Whole-cell patch-clamp of Kv1.1 currents in transiently transfected CHO cells
# T1 construct: host or cells: CHO cells, transient transfection (Lipofectamine 2000)
# T1 sequence (Q09470 whole entry): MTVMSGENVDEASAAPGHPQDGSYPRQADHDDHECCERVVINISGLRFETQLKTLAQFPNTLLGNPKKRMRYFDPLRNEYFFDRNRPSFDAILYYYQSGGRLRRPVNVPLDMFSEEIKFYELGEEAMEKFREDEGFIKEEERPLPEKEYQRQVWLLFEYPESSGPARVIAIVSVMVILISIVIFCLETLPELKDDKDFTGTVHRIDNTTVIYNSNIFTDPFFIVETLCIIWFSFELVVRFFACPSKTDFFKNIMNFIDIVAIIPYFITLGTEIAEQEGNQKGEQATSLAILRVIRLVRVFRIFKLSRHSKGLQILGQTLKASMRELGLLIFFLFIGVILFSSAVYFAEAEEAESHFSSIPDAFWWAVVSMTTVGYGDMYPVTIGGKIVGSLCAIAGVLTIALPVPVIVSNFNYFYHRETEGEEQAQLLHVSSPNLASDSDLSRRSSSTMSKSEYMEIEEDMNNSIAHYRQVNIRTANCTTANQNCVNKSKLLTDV
# Description: (§1) Macroscopic Kv1.1 and Kv1.2 currents were measured in transiently transfected CHO cells. For Kv1.3 current recording, human T lymphocytes were activated by Phytohemagglutinin A (PHA) to increase Kv1.3 channel expression, and micro-pipettes were filled with Ca^2+-free solution to prevent KCa3.1 channel activation. K^+ currents were evoked by applying 15-ms-long depolarization pulses to +50 mV from a holding potential of −120 mV except for Kv1.2, as it has highly variable activation kinetics; therefore, 15–500 ms-long pulses were applied to maximize the open probability of Kv1.2 channel. CboK peptide toxins were dissolved in a freshly prepared extracellular solution and applied to the whole-cell patch-clamped cells using a micro perfusion system at 200 μL/min flow rate.
# (§2) CHO cells were transiently transfected by using Lipofectamine 2000 kit (Invitrogen, Carlsbad, CA, USA), as per the manufacturer’s protocol with vector pCMV6-AC-GFP (cat# RG211000 and RC222200; OriGene Technologies, Rockville, MD, USA) encoding hKv1.1 (hKCNA1 gene) or hKv1.2 (hKCNA2 gene) ion channels. Cells were grown under standard conditions in an incubator at 37 °C and 5% CO2 for 24 h. GFP-positive transfected cells were identified by utilizing a Nikon TMS fluorescence microscope (Nikon, Tokyo, Japan) using bandpass filters of 455–495 nm and 515–555 nm for excitation and emission, respectively.
# (§3) The patch-clamp technique was used for measuring whole-cell currents in voltage-clamped mode using standard protocols. Electrophysiological recordings were acquired by using Multiclamp 700B amplifier connected to a personnel computer with an Axon Digidata1440 digitizer (Molecular Devices, Sunnyvale, CA, USA). Pipettes were pulled from GC150F-15 borosilicate capillaries (Harvard Apparatus, Kent, UK) having 3−5 MΩ tip resistance in the bath solution. All current recordings were carried out at room temperature (20−25 °C) and only those currents were recorded and subjected to analyses when the leak current at holding potential was <5% of peak current at the test potential. Current traces were lowpass-filtered by utilizing the built-in analog four-pole Bessel filters of the amplifiers and were sampled at 20 kHz which is at least twice the filter cut-off frequency. A gravity-driven perfusion system was used to perfuse the cells with control and test solutions and excess fluid was removed continuously through vacuum suction. The extracellular solution (bath solution) contained 145 mM NaCl, 5.5 mM glucose, 5 mM KCl, 2.5 mM CaCl2, 1 mM MgCl2, and 10 mM HEPES, having pH of 7.35 and an osmolarity between 302 and 308 mOsM/L. Toxins were dissolved in bath solution at different molar concentrations and supplemented with 0.1 mg/mL of bovine serum albumin BSA (Sigma-Aldrich, Budapest, Hungary). The intracellular solution (pipette filling) was comprised of 140 mM KF, 2 mM MgCl2, 1 mM CaCl2, 10 mM HEPES, and 11 mM EGTA, with a pH of 7.22 and an osmolarity of ~295 mOsM/L.
# (§4) Generally, to evoke the Kv1.xcurrents, 15-ms-long depolarization pulses to +50 mV from a holding potential of −120 mV were applied, and the current traces were recorded after every 15 s. However, in the case of Kv1.2, due to its variable activation kinetics, the duration of the depolarization pulse was set between 15 and 500 ms to attain the saturated peak current.
# Kv1.3 [1] = target: T2, Kv1.3 (Homo sapiens, UniProt P22001); assay: Whole-cell patch-clamp of Kv1.3 currents in PHA-activated human T lymphocytes
# T2 construct: endogenous in cells
# T2 sequence (P22001 whole entry): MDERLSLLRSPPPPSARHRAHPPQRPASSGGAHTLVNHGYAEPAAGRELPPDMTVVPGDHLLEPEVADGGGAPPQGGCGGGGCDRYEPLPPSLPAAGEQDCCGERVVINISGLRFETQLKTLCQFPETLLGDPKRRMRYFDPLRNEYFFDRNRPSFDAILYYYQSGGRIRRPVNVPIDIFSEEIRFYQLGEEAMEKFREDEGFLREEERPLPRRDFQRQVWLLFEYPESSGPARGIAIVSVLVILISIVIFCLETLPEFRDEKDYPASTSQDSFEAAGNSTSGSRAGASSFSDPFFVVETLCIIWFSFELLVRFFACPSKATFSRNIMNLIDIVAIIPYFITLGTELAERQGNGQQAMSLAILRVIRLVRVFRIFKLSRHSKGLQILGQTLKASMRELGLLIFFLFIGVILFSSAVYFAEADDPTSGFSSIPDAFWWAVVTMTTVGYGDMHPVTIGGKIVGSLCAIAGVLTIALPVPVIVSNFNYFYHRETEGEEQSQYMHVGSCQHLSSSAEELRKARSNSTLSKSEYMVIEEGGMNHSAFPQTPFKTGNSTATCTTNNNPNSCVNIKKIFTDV
# Description: as §1
# Isochronal RCF data points obtained this way (isochronal RCF = I4ms/I4ms,0 where I4ms,0 and I4ms are the currents at 4 ms time point in the absence and presence of CboK peptides, respectively) at different toxin concentrations were fitted with the Hill equation to obtain concentration–response curves as shown in Figure 6H.
# Human peripheral venous blood was acquired from anonymous healthy volunteers from the blood bank. Blood samples were collected by having approval from the Ethical Committee of the Hungarian Medical Research Council (36255-6/2017/EKU). PBMCs were separated by Histopaque 1077 (Sigma-Aldrich, Budapest, Hungary) separation technique, and isolated cells, at the density of 5 × 10^5 cells, were cultured in RPMI 1640 media (Gibco, Grand Island, NY, USA) supplemented with 10% FBS (Sigma-Aldrich, Budapest, Hungary), 2 mM L-glutamine, […], and […] penicillin in a humidified incubator at 37 °C and 5% CO2 for 3–6 days. A measure of 2, 5, or 10 μg/mL of Phytohemagglutinin A (PHA) (Sigma-Aldrich, Budapest, Hungary) was added in cultured cells to activate the PBMCs and upregulate the Kv1.3 expression.
# as §3, with “suction.” for “suction. The extracellular solution (bath solution) contained 145 mM NaCl, 5.5 mM glucose, 5 mM KCl, 2.5 mM CaCl2, 1 mM MgCl2, and 10 mM HEPES, having pH of 7.35 and an osmolarity between 302 and 308 mOsM/L. Toxins were dissolved in bath solution at different molar concentrations and supplemented with 0.1 mg/mL of bovine serum albumin BSA (Sigma-Aldrich, Budapest, Hungary). The intracellular solution (pipette filling) was comprised of 140 mM KF, 2 mM MgCl2, 1 mM CaCl2, 10 mM HEPES, and 11 mM EGTA, with a pH of 7.22 and an osmolarity of ~295 mOsM/L.”
# hKv1.2 = target: T3, hKv1.2 (Homo sapiens, UniProt P16389); assay: Whole-cell patch-clamp of Kv1.2 currents in transiently transfected CHO cells; settings: Hill fit of RCF vs toxin concentration, n ≥ 3
# T3 construct: GFP (C); host or cells: CHO cells, transient transfection (Lipofectamine 2000)
# T3 sequence (P16389 whole entry): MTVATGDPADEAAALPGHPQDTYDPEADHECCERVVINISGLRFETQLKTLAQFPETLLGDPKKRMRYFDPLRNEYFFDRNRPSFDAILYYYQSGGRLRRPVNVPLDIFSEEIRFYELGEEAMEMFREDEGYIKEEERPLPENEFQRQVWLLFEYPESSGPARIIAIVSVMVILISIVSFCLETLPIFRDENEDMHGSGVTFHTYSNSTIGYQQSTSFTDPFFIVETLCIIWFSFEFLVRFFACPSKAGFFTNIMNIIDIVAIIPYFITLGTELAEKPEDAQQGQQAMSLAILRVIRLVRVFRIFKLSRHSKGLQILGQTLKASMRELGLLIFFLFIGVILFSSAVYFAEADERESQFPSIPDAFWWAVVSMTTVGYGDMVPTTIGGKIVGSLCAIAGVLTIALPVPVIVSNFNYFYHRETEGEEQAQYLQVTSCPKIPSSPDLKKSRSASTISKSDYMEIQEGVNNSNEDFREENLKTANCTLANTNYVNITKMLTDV
# Description: as §1, §2, §3, §4
# Kv1.3 [2] = target: T2, Kv1.3; assay: Whole-cell patch-clamp of Kv1.3 currents in PHA-activated human T lymphocytes; settings: 1 µM toxin, end of 15-ms pulse to 0 mV (Figure 6E)
smiles,measurement,setting,value
"CC[C@H](C)[C@@H]1NC(=O)[C@@H]2CSSC[C@H](NC(=O)[C@@H](NC(=O)[C@@H](N)[C@@H](C)O)C(C)C)C(=O)N[C@@H](C(C)C)C(=O)N[C@@H](Cc3ccc(O)cc3)C(=O)N[C@@H](CCCNC(=N)N)C(=O)N[C@@H]([C@@H](C)O)C(=O)N[C@H]3CSSC[C@H](NC(=O)[C@H](C)NC(=O)[C@H](CC(N)=O)NC(=O)[C@H](CC(N)=O)NC1=O)C(=O)N[C@@H](CCCCN)C(=O)N[C@H](C(=O)N[C@@H](Cc1ccc(O)cc1)C(=O)N1CCC[C@H]1C(=O)N[C@@H](Cc1ccc(O)cc1)C(=O)O)CSSC[C@H](NC(=O)[C@H](CC(=O)O)NC(=O)[C@H](CCCCN)NC(=O)[C@H](CC(=O)O)NC3=O)C(=O)N[C@@H](CCCCN)C(=O)N[C@@H](CCCNC(=N)N)C(=O)N[C@@H](CCCNC(=N)N)C(=O)NCC(=O)N[C@@H](Cc1ccc(O)cc1)C(=O)N[C@@H](CCCNC(=N)N)C(=O)N[C@@H](CO)C(=O)NCC(=O)N[C@@H](CCCCN)C(=O)N2 [CboK2] (H-TVCVYRTCDKDCKRRGYRSGKCINNACKCYPY-OH; disulfide 3-22, 8-27, 12-29)",effect on Kv1.1 currents,hKv1.1; 100 nM toxin,did not block
same,Kd,"hKv1.1; this study, screened at 100 nM, read-out: Kd Values Kv1.1 (symbol)",> 100 nM
same,remaining current fraction (RCF) of Kv1.3 at +50 mV,"Kv1.3 [1]; 1 µM toxin, end of 15-ms pulse to +50 mV (Figure 6C)",~ 0.34
same,"Hill coefficient H, Kv1.3 block","Kv1.3 [1]; Hill fit of isochronal RCF (4 ms), n ≥ 3",0.8
same,Kd,"Kv1.3 [1]; Hill fit of isochronal RCF (current at 4 ms), 15-ms pulses to +50 mV from -120 mV, n ≥ 3, read-out: Kd for Kv1.3",171 nM
same,Kd,"hKv1.2; cumulative application, equilibrium block, pulses to +50 mV from -120 mV, read-out: Kd for Kv1.2",0.763 nM
same,"Hill coefficient H, Kv1.2 block",hKv1.2,1.5
same,remaining current fraction (RCF) of Kv1.3 at 0 mV,Kv1.3 [2],~ 0.23
